Assay results taken from PubChem BioAssay AID1963976 (Molecular Pharmacology Branch, DTP, NCI, 2024).

Test system: 435261-313-R-J1-PDC tumor spheroid viability
Test: Anticancer human tumor 435261-313-R-J1-PDC patient-derived colon adenocarcinoma cell line growth inhibition [PI3K]
Conditions: spheroids with HUVEC and MSC; for IC50: curve of first compound; for viability, T/C: stronger effect = lower value
Summary of the method: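 We assembled tumor spheroids that included a stromal compartment of HUVEC and MSCs, then exposed them to targeted agents alone and together with PI3K pathway inhibitors. Concentration series descended by half-log from clinically achievable Cmax levels. Viability served as the endpoint.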
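Note: spheroids exposed to compounds for 7 days.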

Cn1cnc2c(F)c(Nc3ccc(Br)cc3Cl)c(C(=O)NOCCO)cc21 + CC(Nc1ncnc2nc[nH]c12)c1cc2cccc(Cl)c2c(=O)n1-c1ccccc1
IC50 (second compound 0.0316 µM): 0.0155 µM
IC50 (second compound 0.1 µM): 0.0107 µM
IC50 (second compound 0.316 µM): 0.016 µM
IC50 (second compound 1 µM): < 0.00949 µM
IC50 (second compound 3.16 µM): < 0.00949 µM
IC50 (second compound 10 µM): < 0.00949 µM
viability, T/C (second compound 0.0316 µM, first compound 0.00949 µM): 60.3%
viability, T/C (second compound 0.0316 µM, first compound 0.03 µM): 35.7%
viability, T/C (second compound 0.0316 µM, first compound 0.0949 µM): 26.9%
viability, T/C (second compound 0.0316 µM, first compound 0.3 µM): 25.1%
viability, T/C (second compound 0.0316 µM, first compound 0.949 µM): 22.2%
viability, T/C (second compound 0.0316 µM, first compound 3 µM): 18.6%
viability, T/C (second compound 0.1 µM, first compound 0.00949 µM): 51.9%
viability, T/C (second compound 0.1 µM, first compound 0.03 µM): 34.6%
viability, T/C (second compound 0.1 µM, first compound 0.0949 µM): 23%
viability, T/C (second compound 0.1 µM, first compound 0.3 µM): 25%
viability, T/C (second compound 0.1 µM, first compound 0.949 µM): 21.7%
viability, T/C (second compound 0.1 µM, first compound 3 µM): 16.6%
viability, T/C (second compound 0.316 µM, first compound 0.00949 µM): 59.9%
viability, T/C (second compound 0.316 µM, first compound 0.03 µM): 38.6%
viability, T/C (second compound 0.316 µM, first compound 0.0949 µM): 25%
viability, T/C (second compound 0.316 µM, first compound 0.3 µM): 22.7%
viability, T/C (second compound 0.316 µM, first compound 0.949 µM): 21.4%
viability, T/C (second compound 0.316 µM, first compound 3 µM): 13.9%
viability, T/C (second compound 1 µM, first compound 0.00949 µM): 43.4%
viability, T/C (second compound 1 µM, first compound 0.03 µM): 34.5%
viability, T/C (second compound 1 µM, first compound 0.0949 µM): 26.4%
viability, T/C (second compound 1 µM, first compound 0.3 µM): 22.2%
viability, T/C (second compound 1 µM, first compound 0.949 µM): 21%
viability, T/C (second compound 1 µM, first compound 3 µM): 12.1%
viability, T/C (second compound 3.16 µM, first compound 0.00949 µM): 38.8%
viability, T/C (second compound 3.16 µM, first compound 0.03 µM): 29.6%
viability, T/C (second compound 3.16 µM, first compound 0.0949 µM): 21%
viability, T/C (second compound 3.16 µM, first compound 0.3 µM): 20.6%
viability, T/C (second compound 3.16 µM, first compound 0.949 µM): 19.5%
viability, T/C (second compound 3.16 µM, first compound 3 µM): 12.3%
viability, T/C (second compound 10 µM, first compound 0.00949 µM): 22.3%
viability, T/C (second compound 10 µM, first compound 0.03 µM): 21.1%
viability, T/C (second compound 10 µM, first compound 0.0949 µM): 19.6%
viability, T/C (second compound 10 µM, first compound 0.3 µM): 16.3%
viability, T/C (second compound 10 µM, first compound 0.949 µM): 15.9%
viability, T/C (second compound 10 µM, first compound 3 µM): 9.75%
